Values quoted from earlier work as cited in publication PMC10224173 (Viruses, 2023).

Molecular target: ZIKV NS2B-NS3 protease (Zika virus, UniProt A0A024B7W1)
Conditions: Table 2; active site inhibitor; ref [43]

ZIKV NS2B-NS3 protease, sequence (A0A024B7W1 1503-1680): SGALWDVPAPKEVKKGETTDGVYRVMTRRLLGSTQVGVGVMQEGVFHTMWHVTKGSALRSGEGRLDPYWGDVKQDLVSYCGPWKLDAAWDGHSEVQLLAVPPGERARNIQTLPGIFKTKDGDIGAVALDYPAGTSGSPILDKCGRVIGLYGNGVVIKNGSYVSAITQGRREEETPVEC
ZIKV NS2B-NS3 protease, sequence (A0A024B7W1 1419-1472): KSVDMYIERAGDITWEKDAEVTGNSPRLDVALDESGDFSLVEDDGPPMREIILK

## CC(C)C[C@H]1C(=O)N2CCC[C@H]2[C@]2(O)O[C@](NC(=O)[C@@H]3C=C4c5cccc6[nH]c(Br)c(c56)C[C@H]4N(C)C3)(C(C)C)C(=O)N12 [Bromocriptine]
  IC50: 21.6 µM
